Measurements published in PubChem BioAssay (NCI).
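Briefly, cells in 96-well plates were exposed to five compound concentrations for 48 h, and endpoints were estimated by linear interpolation. GI50 = concentration required for 50% inhibition of growth. TGI is the concentration that stops growth completely.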

Legend:
Assay in all cases: DTP human tumour cell line panel, 48 h
A549 NSCLC = test system: A549 NSCLC
HOP-92 NSCLC = test system: HOP-92 NSCLC
M14 melanoma = test system: M14 melanoma
MOLT-4 leukemia = test system: MOLT-4 leukemia
OVCAR-5 ovarian = test system: OVCAR-5 ovarian
SF-295 CNS = test system: SF-295 CNS
SK-OV-3 ovarian = test system: SK-OV-3 ovarian
SN12C renal = test system: SN12C renal
SNB-75 CNS = test system: SNB-75 CNS
HS 578T breast = test system: HS 578T breast

SMILES | GI50 (A549 NSCLC) | TGI (A549 NSCLC) | GI50 (HOP-92 NSCLC) | TGI (HOP-92 NSCLC) | GI50 (M14 melanoma) | TGI (M14 melanoma) | GI50 (MOLT-4 leukemia) | TGI (MOLT-4 leukemia) | GI50 (OVCAR-5 ovarian) | TGI (OVCAR-5 ovarian) | GI50 (SF-295 CNS) | TGI (SF-295 CNS) | GI50 (SK-OV-3 ovarian) | TGI (SK-OV-3 ovarian) | GI50 (SN12C renal) | TGI (SN12C renal) | GI50 (SNB-75 CNS) | TGI (SNB-75 CNS) | TGI (HS 578T breast) | GI50 (HS 578T breast)
N.N.N.N.N.[Cl-].[Co+3].c1ccc(-c2nn[n-]n2)cc1 | > 100000 nM | > 100 µM | > 100 µM | > 100 µM | > 100 µM | > 100 µM | > 100000 nM | > 100 µM | > 100 µM | > 100 µM | > 100 µM | > 100 µM | > 100 µM | > 100 µM | > 100 µM | > 100 µM | > 100 µM | > 100 µM | – | –
OCC(O)C(Cl)CCl (stereo unspecified) | – | > 100 µM | – | – | – | > 100 µM | – | > 100 µM | – | > 100 µM | – | > 100 µM | – | > 100 µM | – | > 100 µM | – | > 100 µM | > 100 µM | –
CC(=O)NNc1nc(C)c(C(=O)/C=C/c2ccccc2Cl)s1 | – | > 100 µM | – | > 100 µM | – | – | – | > 100 µM | – | > 100 µM | – | > 100 µM | – | > 100 µM | – | > 100 µM | – | > 100 µM | – | –
COC(=O)C(C#CCCCCC#CC(NC(=O)OCc1ccccc1)(C(=O)OC)C(F)(F)F)(NC(=O)OCc1ccccc1)C(F)(F)F (stereo unspecified) | – | > 100 µM | – | > 100 µM | – | > 100 µM | – | – | – | > 100 µM | – | > 100 µM | – | > 100 µM | – | > 100 µM | – | > 100 µM | – | –
CCC1CN2C(=N1)c1ccccc1-c1cc(Cl)ccc12 (stereo unspecified) | 2240 nM | 15.6 µM | – | – | 3.13 µM | 10.4 µM | 2510 nM | 7.16 µM | 4.48 µM | 29.6 µM | 3.91 µM | 31.3 µM | 4.27 µM | 24.6 µM | 2.97 µM | 17.4 µM | 3.73 µM | 16 µM | 34.5 µM | 6.58 µM
Cc1ccc([N+](=O)[O-])cc1NC(=O)/C(=N/NC(=S)NN)C1SC(=S)NC1=O (stereo unspecified) | – | > 100 µM | – | > 100 µM | – | > 100 µM | – | > 100 µM | – | > 100 µM | – | > 100 µM | – | > 100 µM | – | > 100 µM | – | > 100 µM | – | –
COc1cc([C@@H]2c3cc4c(cc3[C@@H](OC(=O)c3ccc(N)cc3)C3COC(=O)[C@@H]32)OCO4)cc(OC)c1O (stereo partly specified) | – | 28.1 µM | – | 20.7 µM | – | > 95 µM | – | 67.4 µM | – | > 95 µM | – | > 95 µM | – | 20.7 µM | – | 40.1 µM | – | 36.4 µM | – | –
O=C(CC(=O)C1=CNc2ccccc2S1)C(=O)Nc1ccc(Cl)cc1 | – | > 50 µM | – | > 50 µM | – | > 50 µM | – | > 50 µM | – | > 50 µM | – | > 50 µM | – | > 50 µM | – | > 50 µM | – | > 50 µM | – | –
C1=CC=C2NCCCCCCCNC3=CC=CC=CC3=NCCCCCCCN=C2C=C1 | – | > 100 µM | – | 98.6 µM | – | – | – | > 100 µM | – | > 100 µM | – | > 100 µM | – | – | – | > 100 µM | – | 67.9 µM | – | –
COC1OC(CBr)C(OC(=O)c2ccccc2)C(O)C1Br (stereo unspecified) | – | > 100 µM | – | > 100 µM | – | > 100 µM | – | > 100 µM | – | > 100 µM | – | > 100 µM | – | – | – | > 100 µM | – | – | – | –
O=C(Nc1cccc(-n2cc(-c3ccncc3)c(-c3cc(O)cc(Cl)c3)n2)c1)Nc1ccc(Cl)c(C(F)(F)F)c1 | 2330 nM | 9.2 µM | – | – | 1.72 µM | 3.85 µM | 1990 nM | 5.81 µM | 3.79 µM | 13.1 µM | 2.05 µM | 4.95 µM | 4.11 µM | 30.7 µM | 3.45 µM | 17.2 µM | 1.49 µM | 6.36 µM | > 100 µM | 3.29 µM
C[C@]12CCC(=O)C=C1CC[C@@H]1C2CC[C@]2(C)Nc3c(cnn3-c3ccccc3)CC12 (stereo partly specified) | – | > 100 µM | – | – | – | > 100 µM | – | > 100 µM | – | > 100 µM | – | > 10 µM | – | > 100 µM | – | – | – | > 100 µM | – | –
O=C(O/C(=C(/N=Nc1ccccc1)c1ccccc1)c1ccccc1)c1ccccc1 | – | > 100 µM | – | > 100 µM | – | – | – | > 100 µM | – | > 100 µM | – | > 100 µM | – | > 100 µM | – | > 100 µM | – | > 100 µM | – | –
O=C(NC(=O)c1cn(CCN(CCO)C(=O)NCCCCCCNC(=O)N(CCO)CCn2cc(C(=O)NC(=O)OCc3ccccc3)c(=O)[nH]c2=O)c(=O)[nH]c1=O)OCc1ccccc1 | – | > 100 µM | – | > 100 µM | – | > 100 µM | – | > 100 µM | – | > 100 µM | – | > 100 µM | – | > 100 µM | – | > 100 µM | – | > 100 µM | – | –
COc1ccc2c(c1)[n+]([O-])c(-c1ccc(OC)c(OC)c1)c(N)[n+]2[O-] | – | > 100 µM | – | – | – | > 100 µM | – | > 100 µM | – | > 100 µM | – | > 100 µM | – | > 100 µM | – | > 100 µM | – | > 100 µM | – | –
O=C1C2C3C=C4c5ccccc5N(c5ccccc5)C4(C2C(=O)N1c1ccc(Cl)cc1)[C@H]1C(=O)N(c2ccc(Cl)cc2)C(=O)[C@@H]31 (stereo partly specified) | – | > 100 µM | – | > 100 µM | – | > 100 µM | – | > 100 µM | – | > 100 µM | – | > 100 µM | – | > 100 µM | – | > 100 µM | – | > 100 µM | – | –
